From PubChem BioAssay (NCI) come the findings set out here.

Molecules are shown by their SMILES. Several values for one entry are separate records, joined by “and”; a condition that tells them apart may be missing. Equal values may be shown once.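 Method: 48-hour compound exposure of cells in 96-well plates, five concentrations, linear interpolation of endpoints. GI50 = concentration required for 50% inhibition of growth. The concentration for full growth arrest is given as TGI.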 Where only a bound is given, the exact number is not on record here.

Broadly, the GI50 is the concentration at which growth is held to half of that of the control. As a reminder, the TGI is the concentration giving total growth inhibition.

Common to all, as to test: DTP human tumour cell line panel, 48 h
Test [1] concerns BT-549 breast.
Test [2] has as its system HOP-62 NSCLC.
Test [3] has as its system K-562 leukemia.
Test [4] concerns M14 melanoma.
In test [5] the test system is NCI/ADR-RES ovarian.
In test [6] the test system is OVCAR-5 ovarian.
For test [7], the system named is SF-539 CNS.
In test [8] the test system is SN12C renal.
Test [9] deals with SNB-19 CNS.
The subject of test [10] is UACC-62 melanoma.

On to `C=C1C(O)C2C(=C(CCc3ccccc3)C13CC3)C(=O)C(C)(CO)C2O` (stereo not given), for which the GI50 in test [1], in test [2], in [3], in test [4], in [5] and in test [6] was above 100 µM throughout. Besides, the GI50 in test [7], in test [8], in test [9] and in test [10] was above 100 µM each time. For the same compound, the TGI in test [1], in [2], in [3], in test [4], in test [5] and in [6] was above 100 µM each time. For the same compound, the TGI in test [7], in test [8], in test [9] and in test [10] was above 100 µM throughout.

`O=C(CC(c1ccccc1)c1c(O)c2ccccc2oc1=O)c1ccccc1` (stereo not given): the total growth inhibition concentration (TGI) in test [1], in [2], in [3], in [4], in test [5] and in test [6] was above 100 µM in each case. Further, the TGI in test [7], in test [8], in test [9] and in [10] was above 100 µM throughout.

Turning to `Cc1cnc(NC(=O)Nc2cc(Br)c(C)cc2OC[C@@H]2CNCCO2)cn1`, the GI50 was 1.28 µM and 1.29 µM in [1]; 0.539 µM and 1.65 µM in test [2]; 0.466 µM and 0.419 µM in test [3]; 0.338 µM and 0.311 µM in [4]; 0.841 µM and 0.679 µM in test [5]; 2.1 µM and 1.96 µM in [6]. Also, the GI50 was 0.457 µM and 0.281 µM in test [7]; 3.8 µM and 2.5 µM in test [8]; 2.52 µM and 1.42 µM in [9]; 1.19 µM in [10]. Also, the TGI in [1] is > 10 µM and 13.6 µM; in test [2] it was > 10 µM and 14.2 µM; in [3], 6.27 µM and 2.5 µM; in test [4], 1.37 µM and 0.999 µM; in test [5], > 10 µM and 11.7 µM; in test [6], > 10 µM and 13.4 µM. For the same compound, the concentration for total growth inhibition (TGI) in test [7] was 3.87 µM and 0.805 µM; in test [8] it was > 10 µM and 12.1 µM; in [9], > 10 µM and 14.3 µM; in [10] it was 6.82 µM.

In the case of `CN[C@H]1C=C[C@@H]2/C=C(C)/C=C/[C@@H](C)[C@H]([C@H](C)[C@H](O)[C@@H](C)NC(C)=O)OC(=O)/C=C/C=C(C)\C=C\[C@]2(C)C1`, the GI50 is 0.0049 µM in [1]; 0.00765 µM in test [2]; 0.0202 µM in test [3]; < 0.001 µM and 0.0049 µM in test [4]; 0.44 µM and 0.347 µM in [5]; 10.3 µM in test [6]. Further, the GI50 in test [7] was < 0.001 µM and 0.0049 µM; in [8], 0.00633 µM; in [9], 0.0795 µM and 0.0718 µM; in test [10] it was 0.022 µM. Also, the TGI in test [1] was above 49 µM; in test [2], above 49 µM; in test [3], above 49 µM; in [4], 7.24 µM; in test [5], above 49 µM; in test [6], above 49 µM. Moreover, the total growth inhibition concentration (TGI) in test [7] is 12.8 µM; in test [8] it was above 49 µM; in test [9], above 49 µM; in test [10], 19.7 µM.

`CN(C)CCCOc1ccc(-c2ccc3ncc4c(c3c2)n(C2CCOCC2)c(=O)n4C)cn1`: the GI50 was 1.32 µM in test [1]; 1.87 µM in test [2]; 9.07 µM in test [3]; 1.78 µM in test [4]; 3.86 µM in [5]; 1.49 µM in test [6]. In addition, the GI50 is 1.52 µM in test [7], 2.12 µM in [8], 4.71 µM in test [9] and 2.73 µM in [10]. Moreover, the TGI in [1] came to 8.99 µM; in test [2], 12.5 µM; in test [3] it was 43.4 µM; in [4], 13.8 µM; in test [5], 21.9 µM; in [6], 30.4 µM. Also, the TGI in test [7] is 6.21 µM; in test [8] it was 20.9 µM; in test [9], 18.7 µM; in test [10], 13.8 µM.

Regarding `COC(=O)c1c2c(c[n+]([O-])c1C)C(=O)C=CC2=O`, the GI50 in test [1] was 1.78 µM; in test [2], 2.6 µM; in test [3] it was 2.51 µM; in test [4] it was 1.87 µM; in test [5], 3.27 µM; in [6] it was 1.9 µM. Further, the GI50 was 1.79 µM in [7], 1.76 µM in [8], 3.02 µM in test [9] and 1.81 µM in test [10]. Further, the TGI was 3.23 µM in test [1]; 7.71 µM in test [2]; above 100 µM in test [3]; 3.69 µM in test [4]; 14.4 µM in test [5]; 3.85 µM in test [6]. Also, the TGI in test [7] came to 3.39 µM; in [8] it was 3.23 µM; in test [9], 10.9 µM; in test [10], 3.4 µM.

For the compound `C=C(C)C(=O)O[C@H]1C[C@@]23O[C@@H]2CCC(=C[C@H]2OC(=O)C(=C)[C@H]12)COC3O` (stereo not given in full), the TGI is above 100 µM in test [1]; above 100 µM in test [2]; 44 µM in [3]; above 100 µM in [4]; above 100 µM in test [5]; above 100 µM in test [6]. In addition, the TGI in test [7], in [8], in test [9] and in [10] was above 100 µM throughout.

For `C=C1C(=O)O[C@H]2[C@H]1CC/C(COC(=O)CSCCSCC(=O)OC/C1=C/CC[C@@]3(C)O[C@H]3[C@H]3OC(=O)C(=C)[C@@H]3CC1)=C\CC[C@@]1(C)O[C@@H]21`, the GI50 in [1] was 1.64 µM; in test [2], 2.45 µM; in test [3] it was 1.17 µM; in test [4], 1.99 µM; in test [5], 3.61 µM; in [6] it was 2.04 µM. Also, the GI50 is 1.55 µM in test [7], 2.19 µM in test [8], 2.85 µM in test [9] and 2.31 µM in test [10]. Moreover, the TGI is 3.27 µM in test [1]; 7.38 µM in [2]; 25.7 µM in test [3]; 4.34 µM in test [4]; 16.7 µM in [5]; 4.58 µM in [6]. Also, the concentration for total growth inhibition (TGI) came out at 3.12 µM in test [7], 5.34 µM in test [8], 9.61 µM in test [9] and 5.16 µM in test [10].
